This is an account of results in ChEMBL document CHEMBL5291721, “A preclinical secondary pharmacology resource illuminates target-adverse drug reaction associations of marketed drugs” (Nat Commun, 2023).

For test [1], the target named is T1, Alpha-2A adrenergic receptor (Homo sapiens, UniProt P08913).
T1 sequence (P08913 whole entry): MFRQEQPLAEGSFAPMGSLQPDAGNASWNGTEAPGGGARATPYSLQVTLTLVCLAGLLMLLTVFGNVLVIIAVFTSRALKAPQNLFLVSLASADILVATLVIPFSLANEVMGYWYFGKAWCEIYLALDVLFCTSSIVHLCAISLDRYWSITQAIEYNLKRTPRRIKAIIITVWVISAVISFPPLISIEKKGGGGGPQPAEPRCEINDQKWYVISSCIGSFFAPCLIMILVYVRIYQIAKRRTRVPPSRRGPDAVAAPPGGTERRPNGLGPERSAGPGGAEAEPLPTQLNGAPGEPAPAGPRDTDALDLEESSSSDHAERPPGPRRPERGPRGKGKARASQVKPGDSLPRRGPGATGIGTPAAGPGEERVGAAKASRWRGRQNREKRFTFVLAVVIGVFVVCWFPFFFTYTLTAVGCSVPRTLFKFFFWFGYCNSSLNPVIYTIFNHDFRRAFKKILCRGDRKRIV
It is filed as functional, cell-based.

The target of test [2] is Voltage-dependent L-type calcium channel subunit alpha-1C (Rattus norvegicus, UniProt P22002). It is filed as functional.
In test [3] the target is Muscarinic acetylcholine receptor M3 (Homo sapiens, UniProt P20309).
For test [4], the target named is T2, Amine oxidase [flavin-containing] A (Homo sapiens, UniProt P21397).
T2 sequence (P21397 whole entry): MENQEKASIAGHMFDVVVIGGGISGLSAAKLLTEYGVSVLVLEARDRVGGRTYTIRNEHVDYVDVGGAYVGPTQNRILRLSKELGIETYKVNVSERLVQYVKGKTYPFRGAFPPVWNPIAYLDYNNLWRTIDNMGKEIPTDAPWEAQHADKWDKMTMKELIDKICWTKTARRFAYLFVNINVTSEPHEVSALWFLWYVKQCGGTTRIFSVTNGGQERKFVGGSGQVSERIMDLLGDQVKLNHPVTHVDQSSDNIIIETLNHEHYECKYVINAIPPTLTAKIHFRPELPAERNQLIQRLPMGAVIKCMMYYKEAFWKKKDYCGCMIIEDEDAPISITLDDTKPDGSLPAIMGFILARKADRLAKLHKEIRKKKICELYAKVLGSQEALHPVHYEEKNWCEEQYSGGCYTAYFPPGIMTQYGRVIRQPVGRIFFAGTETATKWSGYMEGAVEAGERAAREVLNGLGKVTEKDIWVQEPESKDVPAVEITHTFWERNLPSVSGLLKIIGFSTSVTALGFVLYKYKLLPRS
In kind it is functional.

The target in test [5] is T3, Cholecystokinin receptor type A (Homo sapiens, UniProt P32238).
T3 sequence (P32238 whole entry): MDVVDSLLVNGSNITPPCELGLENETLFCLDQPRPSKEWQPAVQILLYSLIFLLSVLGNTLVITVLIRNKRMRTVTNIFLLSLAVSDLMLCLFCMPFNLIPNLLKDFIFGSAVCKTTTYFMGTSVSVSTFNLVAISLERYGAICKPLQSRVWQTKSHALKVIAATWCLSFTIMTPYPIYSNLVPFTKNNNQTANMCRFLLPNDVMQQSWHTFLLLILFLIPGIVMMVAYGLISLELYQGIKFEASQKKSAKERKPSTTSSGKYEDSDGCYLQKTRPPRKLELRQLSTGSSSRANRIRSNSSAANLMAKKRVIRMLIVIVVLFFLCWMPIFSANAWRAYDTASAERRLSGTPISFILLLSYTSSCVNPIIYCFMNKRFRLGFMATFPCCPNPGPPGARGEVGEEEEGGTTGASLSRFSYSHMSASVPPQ

The target of the next test is T4, Progesterone receptor (Homo sapiens, UniProt P06401).
T4 sequence (P06401 whole entry): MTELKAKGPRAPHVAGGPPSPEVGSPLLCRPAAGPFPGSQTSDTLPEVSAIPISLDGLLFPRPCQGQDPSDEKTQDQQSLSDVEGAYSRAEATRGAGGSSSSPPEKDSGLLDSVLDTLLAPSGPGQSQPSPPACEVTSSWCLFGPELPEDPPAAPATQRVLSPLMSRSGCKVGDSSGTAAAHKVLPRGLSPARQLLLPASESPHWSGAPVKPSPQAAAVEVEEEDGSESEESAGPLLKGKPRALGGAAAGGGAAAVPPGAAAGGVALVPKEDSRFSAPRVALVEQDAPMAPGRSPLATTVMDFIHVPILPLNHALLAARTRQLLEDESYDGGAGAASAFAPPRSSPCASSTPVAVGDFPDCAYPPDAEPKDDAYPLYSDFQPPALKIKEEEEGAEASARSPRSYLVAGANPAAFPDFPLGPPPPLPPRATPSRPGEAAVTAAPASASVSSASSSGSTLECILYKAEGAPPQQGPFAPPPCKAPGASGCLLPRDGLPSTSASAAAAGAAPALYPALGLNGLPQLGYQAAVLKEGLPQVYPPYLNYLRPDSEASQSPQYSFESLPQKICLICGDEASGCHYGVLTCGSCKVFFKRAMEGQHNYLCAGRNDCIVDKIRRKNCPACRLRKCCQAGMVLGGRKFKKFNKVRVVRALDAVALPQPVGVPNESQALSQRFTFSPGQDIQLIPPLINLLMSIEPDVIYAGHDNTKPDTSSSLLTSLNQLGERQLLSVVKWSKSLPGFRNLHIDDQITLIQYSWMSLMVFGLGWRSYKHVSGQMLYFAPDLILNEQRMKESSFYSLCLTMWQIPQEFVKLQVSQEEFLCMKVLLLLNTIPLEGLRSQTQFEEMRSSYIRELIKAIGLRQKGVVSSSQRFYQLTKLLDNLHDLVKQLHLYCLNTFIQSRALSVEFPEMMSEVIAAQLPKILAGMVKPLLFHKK
It is filed as functional.

For another test, the target named is Histamine H2 receptor (Homo sapiens, UniProt P25021). In kind it is functional, cell-based.
In test [6] the target is Neuronal acetylcholine receptor subunit alpha-4 (Homo sapiens, UniProt P43681).
In test [7] the target is Gamma-aminobutyric acid receptor subunit alpha-1 (Rattus norvegicus, UniProt P62813). It is filed as functional.
Another test addresses D(1A) dopamine receptor (Homo sapiens, UniProt P21728). It is filed as functional, cell-based.

The term AC50 denotes the concentration at which the activity in the assay is half-maximal.
Note: assay procedure not described here.

Chain of Muscarinic acetylcholine receptor M3 (P20309 whole entry): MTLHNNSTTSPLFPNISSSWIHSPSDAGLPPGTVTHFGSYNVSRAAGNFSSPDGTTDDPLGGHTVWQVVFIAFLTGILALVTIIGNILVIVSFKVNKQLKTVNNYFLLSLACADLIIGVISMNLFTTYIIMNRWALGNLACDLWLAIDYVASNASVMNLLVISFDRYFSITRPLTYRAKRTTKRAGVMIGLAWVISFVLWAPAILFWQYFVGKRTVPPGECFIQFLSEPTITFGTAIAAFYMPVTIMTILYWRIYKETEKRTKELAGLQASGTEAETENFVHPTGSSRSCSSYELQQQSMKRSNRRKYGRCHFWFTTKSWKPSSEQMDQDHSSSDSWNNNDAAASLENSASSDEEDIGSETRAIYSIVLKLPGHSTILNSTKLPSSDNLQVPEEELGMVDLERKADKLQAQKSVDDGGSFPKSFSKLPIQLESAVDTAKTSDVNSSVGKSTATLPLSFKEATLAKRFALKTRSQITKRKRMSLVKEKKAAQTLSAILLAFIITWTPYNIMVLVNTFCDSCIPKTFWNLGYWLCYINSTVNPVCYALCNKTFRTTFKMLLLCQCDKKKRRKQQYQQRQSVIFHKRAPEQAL
Chain of Gamma-aminobutyric acid receptor subunit alpha-1 (P62813 whole entry): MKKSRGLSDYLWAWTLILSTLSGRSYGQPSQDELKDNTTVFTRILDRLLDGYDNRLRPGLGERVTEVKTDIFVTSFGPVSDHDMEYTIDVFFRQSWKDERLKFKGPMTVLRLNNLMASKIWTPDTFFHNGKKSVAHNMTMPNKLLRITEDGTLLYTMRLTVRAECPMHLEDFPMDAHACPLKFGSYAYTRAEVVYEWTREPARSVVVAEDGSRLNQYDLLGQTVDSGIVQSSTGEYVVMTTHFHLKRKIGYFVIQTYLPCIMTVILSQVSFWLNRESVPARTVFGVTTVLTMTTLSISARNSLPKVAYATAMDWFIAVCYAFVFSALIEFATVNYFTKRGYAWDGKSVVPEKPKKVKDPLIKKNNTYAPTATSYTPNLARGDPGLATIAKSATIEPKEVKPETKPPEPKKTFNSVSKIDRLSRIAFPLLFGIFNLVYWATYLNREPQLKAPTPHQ
Chain of Histamine H2 receptor (P25021 whole entry): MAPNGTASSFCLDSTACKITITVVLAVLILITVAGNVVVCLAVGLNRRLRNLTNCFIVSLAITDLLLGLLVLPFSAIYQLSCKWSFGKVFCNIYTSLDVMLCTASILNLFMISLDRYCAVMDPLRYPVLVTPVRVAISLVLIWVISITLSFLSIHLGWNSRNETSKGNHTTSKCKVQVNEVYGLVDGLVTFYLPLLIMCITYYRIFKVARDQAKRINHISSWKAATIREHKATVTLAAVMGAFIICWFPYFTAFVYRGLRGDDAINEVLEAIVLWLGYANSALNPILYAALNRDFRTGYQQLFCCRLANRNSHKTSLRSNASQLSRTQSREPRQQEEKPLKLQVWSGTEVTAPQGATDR
Chain of Neuronal acetylcholine receptor subunit alpha-4 (P43681 whole entry): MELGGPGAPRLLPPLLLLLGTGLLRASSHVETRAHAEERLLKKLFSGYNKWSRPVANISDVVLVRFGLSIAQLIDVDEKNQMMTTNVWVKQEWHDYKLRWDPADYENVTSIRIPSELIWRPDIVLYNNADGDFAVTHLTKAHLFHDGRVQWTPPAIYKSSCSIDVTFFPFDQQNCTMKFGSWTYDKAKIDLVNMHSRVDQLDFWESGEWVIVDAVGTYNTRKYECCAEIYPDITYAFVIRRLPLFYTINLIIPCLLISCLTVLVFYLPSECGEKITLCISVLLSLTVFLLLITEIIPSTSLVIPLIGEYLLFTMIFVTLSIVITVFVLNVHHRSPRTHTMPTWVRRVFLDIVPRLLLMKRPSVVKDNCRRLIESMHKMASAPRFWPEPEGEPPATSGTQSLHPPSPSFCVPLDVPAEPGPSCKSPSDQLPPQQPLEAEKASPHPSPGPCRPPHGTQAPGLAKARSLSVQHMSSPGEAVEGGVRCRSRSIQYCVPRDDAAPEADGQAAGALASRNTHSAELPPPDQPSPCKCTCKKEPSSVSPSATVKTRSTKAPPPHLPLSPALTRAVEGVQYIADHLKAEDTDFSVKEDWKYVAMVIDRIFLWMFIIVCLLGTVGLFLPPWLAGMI
Chain of D(1A) dopamine receptor (P21728 whole entry): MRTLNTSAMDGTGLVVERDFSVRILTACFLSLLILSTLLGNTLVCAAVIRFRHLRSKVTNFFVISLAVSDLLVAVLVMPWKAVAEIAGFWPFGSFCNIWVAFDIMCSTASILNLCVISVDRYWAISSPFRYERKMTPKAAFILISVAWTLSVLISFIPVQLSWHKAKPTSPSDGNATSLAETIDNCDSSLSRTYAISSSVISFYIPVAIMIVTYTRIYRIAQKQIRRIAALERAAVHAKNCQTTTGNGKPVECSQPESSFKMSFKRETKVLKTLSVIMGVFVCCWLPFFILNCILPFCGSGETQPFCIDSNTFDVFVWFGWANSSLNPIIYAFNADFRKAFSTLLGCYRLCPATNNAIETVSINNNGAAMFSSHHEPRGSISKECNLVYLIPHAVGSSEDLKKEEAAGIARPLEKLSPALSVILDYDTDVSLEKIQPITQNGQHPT
Chain of Voltage-dependent L-type calcium channel subunit alpha-1C (P22002 whole entry): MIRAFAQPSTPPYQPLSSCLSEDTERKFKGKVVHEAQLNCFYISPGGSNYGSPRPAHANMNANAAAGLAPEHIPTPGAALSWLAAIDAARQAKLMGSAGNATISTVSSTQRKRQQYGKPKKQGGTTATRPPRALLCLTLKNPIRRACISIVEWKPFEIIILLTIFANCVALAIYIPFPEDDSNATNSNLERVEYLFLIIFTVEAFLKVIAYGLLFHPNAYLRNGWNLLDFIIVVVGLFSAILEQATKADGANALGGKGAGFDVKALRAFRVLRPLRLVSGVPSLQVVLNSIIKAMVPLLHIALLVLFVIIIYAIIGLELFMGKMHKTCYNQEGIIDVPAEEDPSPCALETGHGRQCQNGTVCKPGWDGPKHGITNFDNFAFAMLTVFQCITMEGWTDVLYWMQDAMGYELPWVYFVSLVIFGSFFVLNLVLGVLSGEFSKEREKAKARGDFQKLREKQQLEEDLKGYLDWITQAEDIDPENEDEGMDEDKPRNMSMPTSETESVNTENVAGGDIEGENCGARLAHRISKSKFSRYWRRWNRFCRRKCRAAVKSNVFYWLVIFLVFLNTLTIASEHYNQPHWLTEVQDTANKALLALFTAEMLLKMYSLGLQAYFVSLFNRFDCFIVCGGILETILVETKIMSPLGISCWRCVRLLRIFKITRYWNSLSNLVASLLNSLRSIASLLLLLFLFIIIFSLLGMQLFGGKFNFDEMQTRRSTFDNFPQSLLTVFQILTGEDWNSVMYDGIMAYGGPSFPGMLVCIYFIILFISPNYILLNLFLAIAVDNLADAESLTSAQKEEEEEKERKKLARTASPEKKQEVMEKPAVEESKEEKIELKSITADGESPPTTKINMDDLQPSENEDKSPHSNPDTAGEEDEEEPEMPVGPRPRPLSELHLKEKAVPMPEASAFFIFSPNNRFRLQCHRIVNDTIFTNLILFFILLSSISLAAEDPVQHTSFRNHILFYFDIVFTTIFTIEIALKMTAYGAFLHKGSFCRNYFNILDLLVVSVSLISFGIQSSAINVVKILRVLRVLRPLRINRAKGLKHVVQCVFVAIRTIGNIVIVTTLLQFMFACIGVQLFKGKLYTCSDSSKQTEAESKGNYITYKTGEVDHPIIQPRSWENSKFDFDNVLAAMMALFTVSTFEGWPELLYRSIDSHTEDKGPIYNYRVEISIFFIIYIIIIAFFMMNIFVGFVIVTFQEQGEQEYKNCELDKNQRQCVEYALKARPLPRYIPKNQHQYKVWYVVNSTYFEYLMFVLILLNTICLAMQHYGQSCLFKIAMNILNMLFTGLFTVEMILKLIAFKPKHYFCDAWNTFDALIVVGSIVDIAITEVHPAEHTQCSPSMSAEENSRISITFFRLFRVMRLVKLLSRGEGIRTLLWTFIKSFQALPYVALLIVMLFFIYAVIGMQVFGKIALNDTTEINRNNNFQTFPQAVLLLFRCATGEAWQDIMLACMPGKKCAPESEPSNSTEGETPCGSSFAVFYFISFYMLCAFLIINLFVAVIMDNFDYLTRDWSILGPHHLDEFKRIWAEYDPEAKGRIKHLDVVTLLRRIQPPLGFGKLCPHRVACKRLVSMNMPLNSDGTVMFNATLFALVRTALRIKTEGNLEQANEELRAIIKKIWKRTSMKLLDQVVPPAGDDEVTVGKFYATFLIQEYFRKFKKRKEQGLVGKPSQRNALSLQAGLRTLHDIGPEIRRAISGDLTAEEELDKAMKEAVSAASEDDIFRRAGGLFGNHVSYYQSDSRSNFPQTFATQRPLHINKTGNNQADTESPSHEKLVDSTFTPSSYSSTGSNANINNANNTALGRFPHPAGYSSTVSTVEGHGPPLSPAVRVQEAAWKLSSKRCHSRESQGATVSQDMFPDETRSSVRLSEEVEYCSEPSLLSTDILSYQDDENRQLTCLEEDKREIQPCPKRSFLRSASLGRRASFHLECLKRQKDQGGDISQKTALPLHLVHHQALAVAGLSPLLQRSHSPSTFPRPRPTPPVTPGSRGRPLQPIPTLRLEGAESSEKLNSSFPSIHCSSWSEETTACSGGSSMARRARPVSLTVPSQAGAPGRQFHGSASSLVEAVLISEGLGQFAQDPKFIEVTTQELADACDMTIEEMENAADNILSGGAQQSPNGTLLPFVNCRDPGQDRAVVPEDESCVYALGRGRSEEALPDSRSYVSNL

As to `CC(=O)OCC(=O)[C@@]1(O)CC[C@H]2[C@@H]3CCC4=CC(=O)CC[C@]4(C)C3=CC[C@@]21C` [ANECORTAVE ACETATE], the half-maximal activity concentration (AC50) in [1] was over 10 µM; in [2], over 10 µM; in test [3], over 30 µM; in [4], over 10 µM; in test [5] it was over 10 µM; at Progesterone receptor, over 30 µM. The AC50 (on Histamine H2 receptor; in test [6]; in [7]; on D(1A) dopamine receptor) was over 10 µM throughout.

For the molecule `NS(=O)(=O)c1cc2c(cc1C(F)(F)F)NC(Cc1ccccc1)NS2(=O)=O` (stereo not given) [BENDROFLUMETHIAZIDE], the AC50 was over 10 µM in test [1]; over 10 µM in test [2]; over 30 µM in test [3]; over 10 µM in test [4]; over 10 µM in test [5]; over 10 µM on Progesterone receptor. Further, the AC50 (at Histamine H2 receptor; in [6]; in test [7]; at D(1A) dopamine receptor) was over 10 µM throughout.

Consider `CCN(CC)C(=O)C1CN2CCc3cc(OC)c(OC)cc3C2CC1OC(C)=O` (stereo not given) [BENZQUINAMIDE], for which the AC50 in test [1] was 0.735 µM; in test [2], over 10 µM; in test [3], over 30 µM; in test [4], over 30 µM; in test [5] it was over 30 µM; at Progesterone receptor, over 30 µM. Besides, the AC50 (on Histamine H2 receptor; in test [6]; in [7]; on D(1A) dopamine receptor) was over 30 µM in each case.

Consider `CCC(=O)OCC(=O)[C@@]1(OC(=O)CC)[C@@H](C)C[C@H]2[C@@H]3CCC4=CC(=O)C=C[C@]4(C)[C@@]3(F)[C@@H](O)C[C@@]21C` [BETAMETHASONE DIPROPIONATE], for which the AC50 in test [1] was over 30 µM; in test [2], over 30 µM; in test [3], over 30 µM; in test [4], over 30 µM; in [5] it was over 30 µM; at Progesterone receptor, 0.3 µM. Further, the half-maximal activity concentration (AC50) (at Histamine H2 receptor; in test [6]; in test [7]; at D(1A) dopamine receptor) was over 30 µM in each case.

As to `CCOC(=O)NNc1ccc(N(CC)CC(C)O)nn1` (stereo not given) [CADRALAZINE], the AC50 (in [1]; in test [2]; in test [3]; in test [4]; in test [5]; at Progesterone receptor) was over 30 µM throughout. Moreover, the concentration at half-maximal activity (AC50) (on Histamine H2 receptor; in [6]; in test [7]; at D(1A) dopamine receptor) was over 30 µM throughout.

Take `CCC(C)(Oc1ccc(C2(c3ccc(OC(C)(CC)C(=O)O)cc3)CCCCC2)cc1)C(=O)O` (stereo not given) [CLINOFIBRATE]: the AC50 (in [1]; in [2]; in [3]; in test [4]; in test [5]; at Progesterone receptor) was over 30 µM throughout. Further, the AC50 (at Histamine H2 receptor; in test [6]; in test [7]; on D(1A) dopamine receptor) was over 30 µM in each case.

With `CCCCC[C@H](O)/C=C/[C@H]1[C@H](O)CC(=O)[C@@H]1C/C=C\CCCC(=O)O` [DINOPROSTONE], the AC50 (in [1]; in test [2]; in test [3]; in [4]; in [5]; at Progesterone receptor) was over 30 µM in each case. The concentration at half-maximal activity (AC50) (at Histamine H2 receptor; in test [6]; in test [7]; at D(1A) dopamine receptor) was over 30 µM each time.

Take `CC(C)c1cc2c(cc1S(=O)(=O)O)[C@@]1(C)CCC[C@@](C)(C(=O)O)[C@@H]1CC2` [ECABET]: the AC50 (in test [1]; in test [2]; in test [3]; in [4]; in [5]; at Progesterone receptor) was over 30 µM each time. Also, the AC50 (on Histamine H2 receptor; in test [6]; in test [7]; at D(1A) dopamine receptor) was over 30 µM in each case.

With `COC(=O)N[C@@H](C)CNc1nccc(-c2cn(C(C)C)nc2-c2cc(Cl)cc(NS(C)(=O)=O)c2F)n1` [ENCORAFENIB], the AC50 in [1] is over 30 µM; in test [2], over 30 µM; in test [3] it was 8.7 µM; in test [4], over 30 µM; in [5], over 30 µM; on Progesterone receptor, over 30 µM. Also, the AC50 was over 30 µM on Histamine H2 receptor, over 30 µM in test [6], 23.1 µM in test [7] and over 30 µM on D(1A) dopamine receptor.

In the case of `CCCN(CC)C(CC)C(=O)Nc1c(C)cccc1C` (stereo not given) [ETIDOCAINE], the AC50 (in [1]; in test [2]; in test [3]; in test [4]; in [5]; on Progesterone receptor) was over 30 µM throughout. Besides, the AC50 (at Histamine H2 receptor; in test [6]; in test [7]; on D(1A) dopamine receptor) was over 30 µM throughout.

With `Clc1ccc(C(Cn2ccnc2)OCc2ccc(Sc3ccccc3)cc2)c(Cl)c1` (stereo not given) [FENTICONAZOLE], the half-maximal activity concentration (AC50) is over 30 µM in test [1]; 12 µM in test [2]; 21 µM in test [3]; over 30 µM in test [4]; over 30 µM in [5]; over 30 µM at Progesterone receptor. The AC50 is over 30 µM at Histamine H2 receptor, over 10 µM in test [6], over 30 µM in test [7] and over 30 µM on D(1A) dopamine receptor.

With `Nc1nc(F)nc2c1ncn2[C@@H]1O[C@H](COP(=O)(O)O)[C@@H](O)[C@@H]1O` [FLUDARABINE PHOSPHATE], the concentration at half-maximal activity (AC50) (in test [1]; in test [2]; in test [3]; in test [4]; in [5]; at Progesterone receptor) was over 30 µM each time. For the same molecule, the AC50 (at Histamine H2 receptor; in [6]; in test [7]; at D(1A) dopamine receptor) was over 30 µM throughout.
